Assay results taken from article PMC6152416, “Pharmacological and Toxicological Screening of Novel Benzimidazole-Morpholine Derivatives as Dual-Acting Inhibitors” (Molecules : A Journal of Synthetic Chemistry and Natural …, 2017).
In brackets after ≈: the same amount, converted by molar mass. Where two headings read alike, the source gives them in different places.

Tests used:
[1] = system: Pseudomona aeuroginosa ATCC 27853; assay: Antimicrobial broth microdilution (CLSI M07-A9); type: cell-based; conditions: Pseudomona aeuroginosa [sic] ATCC 27853
Procedure: Microbiological studies were performed according to CLSI reference M07-A9 broth microdilution method for bacterial strains and EUCAST definitive method EDef 7.1 for Candida species. Synthesized compounds were tested for their in vitro growth inhibitory activity against Escherichia coli ATCC 35218, Escherichia coli ATCC 25922, Staphylococcus aureus, ATCC 25923, Pseudomona aeuroginosa ATCC 27853, Enterococcus faecalis ATCC29212, Klebsiella pneumoniae ATCC700603 Listeria monocytogenes ATCC7644, Candida albicans ATCC90028, Candida glabrata ATCC 90030, Candida krusei ATCC 6258, Candida parapsilosis ATCC 22019.
The cultures were obtained from Mueller-Hinton broth (Difco) for the bacterial strains and the yeasts were maintained in Roswell Park Memorial Institute (RPMI) medium, after an overnight incubation at 37 °C for both. The inocula of the test microorganisms were adjusted to match an equivalent turbidity of a 0.5 McFarland standard, which was determined using a spectrophotometer; the final inoculum size was determined to be 0.5–2.5 × 10^5 cfu/mL for antibacterial and antifungal assays. The tests were carried out for both mediums at pH = 7 and two-fold serial dilutions were applied. The last well on the microplates, which was containing only the inoculated broth, was kept as control, and the last well with no growth of microorganism was recorded to represent the minimum inhibitory concentration (MIC50) in μg/mL. For both of the antibacterial and antifungal assays, the test compounds and reference drugs were firstly dissolved in DMSO, and further dilutions were performed to the desired concentrations of 1000, 500, 250, 125, 62.5, 31.25, 15.6, 7.8, 3.9 and 1.95 μg/mL using Mueller–Hinton broth and RPMI medium. The completed plates were incubated for 24 h, and at the end of the incubation, resazurin (20 µg/mL) was added into each well to control the growth in the wells. Final plates including microorganism strains were incubated for 2 h. MIC50 values were determined using microplate reader at […] wavelengths; MIC50 readings were performed twice for entire compounds. Chloramphenicol and ketoconazole were used as reference drugs.

AChE = AChE (Homo sapiens, UniProt P22303); type: biochemical
Procedure: Inhibition potency of the test compounds against AChE was determined using Ellman’s method. Enzyme solutions were prepared in gelatin solution (1%, w/v), at the concentration of 2.5 units/mL. […] AChE solution (20 µL/well) and test solution (20 µL/well) were added to phosphate buffer solution (140 µL/well, pH 8.0 ± 0.1), and incubated at 25 °C for 5 min. […] The production of the yellow anion was recorded by multimode microplate reader for 10 min at 412 nm. As a control, an identical solution of the enzyme without the inhibitor was processed. The control and the inhibitor readings were corrected with blank-readings. All processes were assayed in four independent determinations.

COX-2 = molecular target: T1, COX-2 (Homo sapiens, UniProt P35354); assay: Fluorimetric COX-2 inhibition screening kit (BioVision); type: biochemical
T1 construct: purchased BioVision (Milpitas, CA, USA) K547-100
T1 sequence (P35354 18-604): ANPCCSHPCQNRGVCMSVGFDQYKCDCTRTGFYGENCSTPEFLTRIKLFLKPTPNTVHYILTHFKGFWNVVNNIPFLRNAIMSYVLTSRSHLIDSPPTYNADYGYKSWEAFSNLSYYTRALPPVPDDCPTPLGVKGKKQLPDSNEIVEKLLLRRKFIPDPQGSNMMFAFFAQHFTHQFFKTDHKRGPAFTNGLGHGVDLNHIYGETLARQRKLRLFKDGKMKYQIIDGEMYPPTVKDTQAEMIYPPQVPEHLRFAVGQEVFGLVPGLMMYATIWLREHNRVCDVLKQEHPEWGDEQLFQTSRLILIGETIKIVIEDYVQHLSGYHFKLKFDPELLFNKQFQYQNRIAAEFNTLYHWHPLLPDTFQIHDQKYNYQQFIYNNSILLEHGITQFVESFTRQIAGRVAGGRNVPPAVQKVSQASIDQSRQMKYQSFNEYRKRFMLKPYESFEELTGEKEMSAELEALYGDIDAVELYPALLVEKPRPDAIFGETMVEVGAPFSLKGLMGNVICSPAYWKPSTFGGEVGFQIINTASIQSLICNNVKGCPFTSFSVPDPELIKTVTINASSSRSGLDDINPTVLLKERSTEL
Procedure: (§1) Inhibitory potency of the compounds on COX-1 and COX-2 enzymes was determined by using fluorimetric COX-1 and COX-2 inhibition screening kits from BioVision (Milpitas, CA, USA). The experimental protocol as described in the guides provided by the supplier was followed. All of the pipetting were performed using a robotized system to increase speed, accuracy and precision. Fluorescence intensities of the samples were kinetically measured at 25 °C for 5–10 min by monitoring emissions at 587 nm after excitation at 535 nm. Two appropriate points (T1 and T2) in the linear range of the plot were chosen and the corresponding fluorescence values (RFU1 and RFU2) were obtained. The slope for all samples including Enzyme Control (EC) was calculated by dividing the net ΔRFU (RFU2 − RFU1) values by the time ΔT (T2 − T1). Percentage of relative inhibition was calculated by using the following equation:% Relative inhibition = (Slope of EC − Slope of S/Slope of EC) × 100 where S is the term representing the tested compound [51, 52]. […] The IC50 values were calculated using the plots of the enzyme activity against concentrations by applying regression analyses.

COX-1 = molecular target: T2, COX-1 (Ovis aries, UniProt P05979); assay: Fluorimetric COX-1 inhibition screening kit (BioVision); type: biochemical
T2 construct: purchased BioVision (Milpitas, CA, USA) K548-100
Procedure: as §1

human recombinant MAO-B = molecular target: T3, human recombinant MAO-B (Homo sapiens, UniProt P27338); assay: MAO inhibition assay (kynuramine, fluorimetric); type: biochemical
T3 sequence (P27338 1-520): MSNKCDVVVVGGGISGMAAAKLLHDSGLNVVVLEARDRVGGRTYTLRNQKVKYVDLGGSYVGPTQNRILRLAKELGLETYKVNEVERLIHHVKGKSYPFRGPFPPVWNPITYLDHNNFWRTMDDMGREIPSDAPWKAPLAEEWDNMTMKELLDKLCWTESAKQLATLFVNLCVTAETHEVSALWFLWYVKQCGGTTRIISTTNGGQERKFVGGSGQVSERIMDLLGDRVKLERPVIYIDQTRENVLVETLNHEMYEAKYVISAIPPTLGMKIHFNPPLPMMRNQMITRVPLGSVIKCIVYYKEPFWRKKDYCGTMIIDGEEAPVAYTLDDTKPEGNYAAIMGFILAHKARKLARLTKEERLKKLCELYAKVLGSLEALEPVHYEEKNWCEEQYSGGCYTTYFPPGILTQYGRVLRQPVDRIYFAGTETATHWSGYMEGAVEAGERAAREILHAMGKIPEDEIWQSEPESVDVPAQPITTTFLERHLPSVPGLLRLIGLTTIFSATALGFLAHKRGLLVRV
Procedure: (§2) Enzyme activity assays were performed according to the procedure reported by Matsumoto et al. with slight modifications. In order to prevent the destructive effect of light on MAO enzymes, the assays were performed in 96-well black plates. Phosphate buffer solution (0.1 M, pH = 7.4) was used for preparation of stock solutions (5 mg/mL) of both human recombinant MAO-A and MAO-B enzymes. […] The addition of the test compound solution was followed by addition of either MAO-A or MAO-B enzyme (50 μL/well) solutions. After 10 min of incubation at 37 °C, kynuramine (50 μL/well) was added and enzyme-substrate reaction was initiated. The plate was incubated for 20 min at 37 °C and then reaction was terminated by addition of 2 N NaOH (75 μL/well). The fluorimetric reads from the top was performed at 310 nm excitation and 380 nm emission wavelengths.

human recombinant MAO-A = molecular target: T4, human recombinant MAO-A (Homo sapiens, UniProt P21397); assay: MAO inhibition assay (kynuramine, fluorimetric); type: biochemical
T4 sequence (P21397 1-527): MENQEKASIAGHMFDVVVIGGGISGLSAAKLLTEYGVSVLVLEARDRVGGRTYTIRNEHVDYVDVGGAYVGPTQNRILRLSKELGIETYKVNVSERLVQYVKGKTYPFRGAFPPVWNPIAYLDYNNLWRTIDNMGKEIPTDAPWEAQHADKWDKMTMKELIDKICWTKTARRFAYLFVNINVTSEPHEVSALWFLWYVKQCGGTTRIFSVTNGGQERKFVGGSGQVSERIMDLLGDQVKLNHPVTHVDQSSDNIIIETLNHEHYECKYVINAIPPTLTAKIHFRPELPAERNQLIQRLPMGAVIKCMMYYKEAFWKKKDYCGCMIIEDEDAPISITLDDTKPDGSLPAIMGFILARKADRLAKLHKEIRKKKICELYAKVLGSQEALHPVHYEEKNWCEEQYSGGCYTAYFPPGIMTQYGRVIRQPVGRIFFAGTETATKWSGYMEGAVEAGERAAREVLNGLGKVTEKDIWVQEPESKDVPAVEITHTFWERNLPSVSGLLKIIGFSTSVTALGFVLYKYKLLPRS
Procedure: as §2

AChE, sequence (P22303 32-614): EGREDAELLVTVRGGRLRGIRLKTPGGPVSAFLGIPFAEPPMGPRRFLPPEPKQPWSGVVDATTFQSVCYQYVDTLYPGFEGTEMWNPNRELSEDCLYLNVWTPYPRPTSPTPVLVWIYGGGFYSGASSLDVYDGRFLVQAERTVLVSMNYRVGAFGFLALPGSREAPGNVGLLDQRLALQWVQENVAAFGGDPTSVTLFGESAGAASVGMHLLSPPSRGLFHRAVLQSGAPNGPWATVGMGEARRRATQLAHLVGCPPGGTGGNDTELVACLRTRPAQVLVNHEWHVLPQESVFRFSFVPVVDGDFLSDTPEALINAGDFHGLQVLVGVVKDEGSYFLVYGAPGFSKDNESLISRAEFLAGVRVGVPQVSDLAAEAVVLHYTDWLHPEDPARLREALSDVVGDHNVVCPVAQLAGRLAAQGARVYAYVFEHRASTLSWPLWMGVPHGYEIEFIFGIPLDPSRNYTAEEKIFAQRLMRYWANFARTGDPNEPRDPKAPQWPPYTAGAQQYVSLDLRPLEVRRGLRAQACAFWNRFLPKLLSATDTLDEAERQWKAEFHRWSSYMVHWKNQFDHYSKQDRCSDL
T2 sequence (P05979 25-600): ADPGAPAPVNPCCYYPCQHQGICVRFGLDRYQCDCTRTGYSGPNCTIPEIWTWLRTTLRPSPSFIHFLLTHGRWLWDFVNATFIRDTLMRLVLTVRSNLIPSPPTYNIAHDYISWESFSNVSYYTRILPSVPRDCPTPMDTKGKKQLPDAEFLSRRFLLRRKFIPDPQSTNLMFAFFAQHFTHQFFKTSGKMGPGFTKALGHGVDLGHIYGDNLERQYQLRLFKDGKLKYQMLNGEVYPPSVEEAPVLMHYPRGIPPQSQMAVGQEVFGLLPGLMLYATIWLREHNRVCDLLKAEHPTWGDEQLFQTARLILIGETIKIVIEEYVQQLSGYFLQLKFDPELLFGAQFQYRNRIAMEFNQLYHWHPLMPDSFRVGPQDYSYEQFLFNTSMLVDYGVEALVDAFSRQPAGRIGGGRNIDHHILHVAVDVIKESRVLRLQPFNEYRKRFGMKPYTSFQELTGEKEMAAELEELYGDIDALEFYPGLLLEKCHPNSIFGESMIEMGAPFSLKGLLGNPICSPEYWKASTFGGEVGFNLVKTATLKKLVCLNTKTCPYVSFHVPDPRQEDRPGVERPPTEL

| Compound | MIC50 [1] [µg/mL] | AChE Inhibition (%) (AChE; 10^-3 M) | AChE Inhibition (%) (AChE; 10^-4 M) | COX-2 Inhibition (%) (COX-2; 10^-3 M) | COX-2 Inhibition (%) (COX-2; 10^-4 M) | COX-1 Inhibition (%) (COX-1; 10^-3 M) | COX-1 Inhibition (%) (COX-1; 10^-4 M) | MAO-B Inhibition (%) (human recombinant MAO-B; 10^-3 M) | MAO-B Inhibition (%) (human recombinant MAO-B; 10^-4 M) | MAO-A Inhibition (%) (human recombinant MAO-A; 10^-3 M) | MAO-A Inhibition (%) (human recombinant MAO-A; 10^-4 M) |
| --- | --- | --- | --- | --- | --- | --- | --- | --- | --- | --- | --- |
| O=C(N[C@H](CO)[C@H](O)c1ccc([N+](=O)[O-])cc1)C(Cl)Cl [Chloramphenicol, reference compound] | 250 (≈ 774 µM) |  |  |  |  |  |  |  |  |  |  |
| c1ccc(-c2ccc(-c3nc4ccccc4n3CCN3CCOCC3)cc2)cc1 [Compound 2o, 2-(1,1’-Biphenyl)-1-[2-(morpholin-4-yl)ethyl]-1H-benzimidazole] |  | 6.33 | 6.33 | 30.76 | 21.48 | 27.63 | 34.00 | 31.12 | 23.54 | 31.85 | 26.19 |
| CSc1ccc(-c2nc3ccccc3n2CCN2CCOCC2)cc1 [Compound 2n, 2-(4-Methylthiophenyl)-1-[2-(morpholin-4-yl)ethyl]-1H-benzimidazole] |  | 12.21 | 12.21 | 30.08 | 33.46 | 39.42 | 32.78 | 34.75 | 32.24 | 32.73 | 24.05 |
| N#Cc1ccc(-c2nc3ccccc3n2CCN2CCOCC2)cc1 [Compound 2k, 2-(4-Cyanophenyl)-1-[2-(morpholin-4-yl)ethyl]-1H-benzimidazole] |  | 20.45 | 20.45 | 26.39 | 20.46 | 28.63 | 28.13 | 43.22 | 34.29 | 31.99 | 26.86 |
